One may read the IC50 as the point on the concentration scale where inhibition reaches its midpoint. In general, Ki refers to the dissociation constant of the complex between target and ligand, obtained from inhibition or displacement.

Values joined by “and” are separate entries in the source; they are usually repeats but may differ in a detail not shown here. Identical values can stand only once. “Also recorded” adds a separate entry of the source. Like-named read-outs stand apart in the source and are kept apart here.

Results on six compounds are retold here after paper PMC8791944, “GLUT3 inhibitor discovery through in silico ligand screening and in vivo validation in eukaryotic expression systems” (Scientific Reports, 2022).

In this test the target is T1, GLUT3S66Y (Homo sapiens, UniProt P11169, S66Y).
T1 construct: expressed in transfected cells; host or cells: Saccharomyces cerevisiae hxt0 strain EBY.S7 (fgy1)
T1 sequence (P11169 1-496 S66Y): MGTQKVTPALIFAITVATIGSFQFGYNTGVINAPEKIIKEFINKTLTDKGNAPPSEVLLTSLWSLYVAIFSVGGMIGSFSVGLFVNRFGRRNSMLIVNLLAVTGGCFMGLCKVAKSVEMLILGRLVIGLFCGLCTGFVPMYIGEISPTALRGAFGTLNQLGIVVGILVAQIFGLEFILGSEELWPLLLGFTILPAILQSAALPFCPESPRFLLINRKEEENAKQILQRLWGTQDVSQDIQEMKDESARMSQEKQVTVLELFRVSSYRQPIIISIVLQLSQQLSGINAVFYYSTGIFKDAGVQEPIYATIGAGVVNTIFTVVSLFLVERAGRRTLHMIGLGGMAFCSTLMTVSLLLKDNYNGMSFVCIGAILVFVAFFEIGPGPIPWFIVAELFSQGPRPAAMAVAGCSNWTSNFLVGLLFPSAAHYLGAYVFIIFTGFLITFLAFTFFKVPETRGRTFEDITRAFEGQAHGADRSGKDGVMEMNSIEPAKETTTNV
Briefly: Glucose transport assay, GLUT3S66Y expressed in hxt^0 yeast cells EBY.S7. The note with it: for Inhibition mode in GLUT3: Dixon plots, versus glucose; for Ki: Ki for GLUT3 inhibition (Dixon plot), Dixon plots with GLUT3S66Y at 0.75, 1.50 and 3.00 mM glucose, competitive with glucose. Format: cell-based. From the text:
We determined GLUT3 transport activity by measuring the accumulation of radioactive glucose inside whole hxt^0 yeast cells (see “Materials and methods” for details). To select an appropriate substrate concentration for transport inhibition screening, we assessed the KM of glucose for GLUT3 in hxt^0 cells. […] Indeed, functional expression of human GLUTs in hxt^0 cells often requires mutations in genes related to yeast lipid composition[65],[73] as well as single-site mutations that may favor the outward-facing conformation of the transporters[65]–[67].
The plasmids containing functional constructs of GLUT1-5 were transformed in the corresponding hxt^0 strains[65],[66],[73] (EBY.VW4000 for GLUT5S72Y, EBY.S7 for GLUT1, GLUT2∆loopS_Q455R, GLUT3 and GLUT3S66Y, and SDY.022 for GLUT4) and grown on 2% (w/v) agar plates of the respective media supplemented with 1% (w/v) maltose. An initial culture of ~ 10 ml was started with a few colonies and grown for 2–3 days if the media was SC-uracil with 1% (w/v) maltose (GLUT1, GLUT3, GLUT4) or 1–2 days if the media was YEP with 1% (w/v) maltose and 100 µg/ml geneticin G418 (GLUT2∆loopS_Q455R and GLUT5S72Y). Cells were washed once in the corresponding media in which maltose was substituted with 0.1–2% hexose substrate for the expressing GLUT (i.e., SC-uracil, 2% (w/v) glucose for GLUT1; SC-uracil, 0.2% (w/v/) glucose for GLUT3 and GLUT4; YEP, 0.2% (w/v) glucose, 100 µg/ml geneticin G418 for GLUT2∆loopS_Q455R, and YEP, 2% (w/v) fructose for GLUT5 S72Y). Then, cells were transferred in the same media so that OD600nm ~ 0.5 and grown further for 1–2 days.
For transport activity assay, cells in the hexose media were centrifuged (1000×g, 5 min, room temperature), washed once with PBS buffer (10 mM Na2HPO4, 1.8 mM KH2PO4, 2.7 mM KCl, 137 mM NaCl, pH 7.4), and resuspended in PBS buffer at an OD600nm ~ 10; each assay contained 100 µl of this cell solution. Transport activity assay was started by adding C^14-hexose at a substrate concentration corresponding to the respective KM (5 mM glucose for GLUT1 or GLUT4, 3 mM glucose for GLUT3 or 1.5 mM glucose for GLUT3S66Y, 15 mM glucose for GLUT2∆loopS_Q455R, and 10 mM fructose for GLUT5S72Y); for determining the glucose KM in GLUT3 and GLUT3S66Y, substrate concentrations were varied accordingly. […] The filtration membranes were transferred into scintillation vials with 10 ml of Scintillation Solution (BioSafeII; Research Products International, Mount Prospect, IL, USA), and vortexed briefly. The radioactivity was determined with a scintillation counter (Tri-carb 2900TR, Perkin Elmer, USA). As all compounds were solubilized in dimethyl sulfoxide (DMSO), controls for determining the relative transport activity included 1% (v/v) DMSO to represent DMSO used as vehicle control (i.e., 100% activity), and known inhibitors at saturating concentrations, 200 µM phloretin for GLUT1-4[69],[82], and 100 µM N-[4-(methylsulfonyl)-2-nitrophenyl]-1,3-benzodioxol-5-amine (MSNBA) for GLUT5 (i.e., complete inhibition). […] Data were analyzed with GraphPad Prism (San Diego, CA, USA).
Supplementary Figure S3. Dose response curves for G3iA-G3iF inhibition of GLUT3S66Y. […] Error bars represent standard deviations from at least three independent measurements. Graphs, data analysis, and IC50 values were generated with GraphPad (www.graphpad.com).
Inhibition mode of G3iA, G3iC, and G3iE in GLUT3. (A-C) Dixon plots^2 for GLUT3S66Y inhibition by G3iA, G3iC, and G3iE, respectively.

On to `COc1ccccc1-n1c(/C=C/c2ccc(O)cc2)nc2ccc(Br)cc2c1=O` [G3iB, 6-bromo-2-[(E)-2-(4-hydroxyphenyl)ethenyl]-3-(2-methoxyphenyl)quinazolin-4(3H)-one], for which the IC50 (read-out: IC50 for GLUT3S66Y transport inhibition) is 9.62 ± 1.17 µM.
On to `O=C(Nc1cccc(Cl)c1)c1cccc(NC(=O)c2cccc([N+](=O)[O-])c2)c1` [G3iE, N-{3-[(3-chloroanilino)carbonyl]phenyl}-3-nitrobenzamide], for which the midpoint of inhibition, the IC50, lay at 20.6 ± 2.4 µM; the “Inhibition mode in GLUT3” value was “competitive inhibition with glucose; also recorded: competition with glucose; also recorded: competitive inhibition mode”; the inhibitory constant (Ki) was determined as 12.3 ± 0.9 µM.
`Cc1ccccc1CN(Cc1nnc(C(C)(C)C)o1)c1ccc2nc(O)[nH]c2c1` [G3iF] gave a 50% inhibitory concentration (IC50) of 24.8 ± 6 µM.
For `Cc1cccnc1OC1CCN(c2cc(N3CCCC3CO)ncn2)CC1` (stereo not shown) [G3iC], the IC50 turned out to be 10.1 ± 2.1 µM, the “Inhibition mode in GLUT3” value is on record as “competitive inhibition with glucose; also recorded: competitive inhibition mode” and affinity was put at a Ki of 5.83 ± 0.3 µM.
Compound `Cc1cc(NC(=O)CCC2Cc3ccccc3NC2=O)nc(-c2ccccc2)n1` (stereo not shown) [G3iD] yielded a half-inhibitory concentration (IC50) of 12.6 ± 1.6 µM.
`CC(=O)Nc1ccc(S(=O)(=O)Nc2ccc(Nc3cc(N(C)C)nc(C)n3)cc2)cc1` [G3iA, N-(4-{[(4-{[6-(dimethylamino)-2-methylpyrimidin-4-yl]amino}phenyl)amino]sulfonyl}phenyl)acetamide]: the concentration for half-maximal inhibition (IC50) stood at 6.21 ± 0.95 µM; the “Inhibition mode in GLUT3” value is “competitive inhibition with glucose”; the Ki was 3.49 µM and ~3.5 µM. Also, under “listed as G2iA”, the “Inhibition mode in GLUT3” value is given as “competitive inhibition mode”.
